Values belong to the molecule of their own block, whether it stands above or below them. Calls of active or inactive are those of the source.
Key:
[1] = molecular target: T1, Short transient receptor potential channel 4 (Mus musculus, UniProt Q9QUQ5); test: block of DAMGO-driven TRPC4 calcium entry – cell-based, HEK293 TRPC4/mu-opioid, Fluo-4 calcium, dose response (AID 434942); type: functional;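 further: potency of inhibitors blocking the TRPC4 calcium response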
T1 sequence (Q9QUQ5 whole entry): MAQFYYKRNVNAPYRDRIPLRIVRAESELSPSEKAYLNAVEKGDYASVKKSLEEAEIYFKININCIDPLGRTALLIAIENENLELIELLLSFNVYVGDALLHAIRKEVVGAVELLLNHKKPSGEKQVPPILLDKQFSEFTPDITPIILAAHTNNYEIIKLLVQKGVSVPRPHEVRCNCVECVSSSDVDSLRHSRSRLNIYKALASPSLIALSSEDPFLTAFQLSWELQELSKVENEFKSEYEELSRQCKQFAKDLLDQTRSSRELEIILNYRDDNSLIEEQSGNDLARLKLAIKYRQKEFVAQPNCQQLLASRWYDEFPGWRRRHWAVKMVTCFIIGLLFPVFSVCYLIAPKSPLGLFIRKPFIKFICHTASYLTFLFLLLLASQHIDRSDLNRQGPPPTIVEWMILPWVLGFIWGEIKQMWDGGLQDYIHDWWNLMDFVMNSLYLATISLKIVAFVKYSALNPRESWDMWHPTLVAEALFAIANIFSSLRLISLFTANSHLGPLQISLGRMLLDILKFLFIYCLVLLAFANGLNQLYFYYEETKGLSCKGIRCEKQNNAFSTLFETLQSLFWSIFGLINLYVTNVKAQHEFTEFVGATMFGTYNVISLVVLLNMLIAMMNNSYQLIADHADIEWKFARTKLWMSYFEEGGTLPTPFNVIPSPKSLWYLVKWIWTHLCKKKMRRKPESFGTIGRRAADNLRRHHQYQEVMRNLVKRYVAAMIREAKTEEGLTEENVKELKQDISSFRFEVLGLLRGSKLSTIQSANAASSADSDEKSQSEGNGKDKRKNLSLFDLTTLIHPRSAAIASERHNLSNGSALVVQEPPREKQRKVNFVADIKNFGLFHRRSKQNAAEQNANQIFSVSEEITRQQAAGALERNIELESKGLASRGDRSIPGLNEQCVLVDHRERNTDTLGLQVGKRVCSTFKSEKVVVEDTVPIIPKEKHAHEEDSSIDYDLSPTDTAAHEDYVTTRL

Vero = test: viability of Vero cells under compound – cytotoxicity control for flavivirus capping enzyme inhibitors (AID 588742); type: functional; conditions: Chlorocebus sabaeus
Genome polyprotein = Genome polyprotein (dengue virus type 2, UniProt P29990); test: flavivirus cap methylation enzyme inhibition – biochemical, confirmation dose response, primary screen (AID 588689); type: functional
Fatty acid synthase [2] = molecular target: T2, Fatty acid synthase (Homo sapiens, UniProt P49327); test: inhibition of human FAS-TE enzyme activity – biochemical, endpoint fluorescence intensity, uHTS hits, dose response (AID 624327); type: functional;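 further: fluorescence from hydrolysis of an O-methyl fluorescein acyl ester substrate by the enzyme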
T2 sequence (P49327 whole entry): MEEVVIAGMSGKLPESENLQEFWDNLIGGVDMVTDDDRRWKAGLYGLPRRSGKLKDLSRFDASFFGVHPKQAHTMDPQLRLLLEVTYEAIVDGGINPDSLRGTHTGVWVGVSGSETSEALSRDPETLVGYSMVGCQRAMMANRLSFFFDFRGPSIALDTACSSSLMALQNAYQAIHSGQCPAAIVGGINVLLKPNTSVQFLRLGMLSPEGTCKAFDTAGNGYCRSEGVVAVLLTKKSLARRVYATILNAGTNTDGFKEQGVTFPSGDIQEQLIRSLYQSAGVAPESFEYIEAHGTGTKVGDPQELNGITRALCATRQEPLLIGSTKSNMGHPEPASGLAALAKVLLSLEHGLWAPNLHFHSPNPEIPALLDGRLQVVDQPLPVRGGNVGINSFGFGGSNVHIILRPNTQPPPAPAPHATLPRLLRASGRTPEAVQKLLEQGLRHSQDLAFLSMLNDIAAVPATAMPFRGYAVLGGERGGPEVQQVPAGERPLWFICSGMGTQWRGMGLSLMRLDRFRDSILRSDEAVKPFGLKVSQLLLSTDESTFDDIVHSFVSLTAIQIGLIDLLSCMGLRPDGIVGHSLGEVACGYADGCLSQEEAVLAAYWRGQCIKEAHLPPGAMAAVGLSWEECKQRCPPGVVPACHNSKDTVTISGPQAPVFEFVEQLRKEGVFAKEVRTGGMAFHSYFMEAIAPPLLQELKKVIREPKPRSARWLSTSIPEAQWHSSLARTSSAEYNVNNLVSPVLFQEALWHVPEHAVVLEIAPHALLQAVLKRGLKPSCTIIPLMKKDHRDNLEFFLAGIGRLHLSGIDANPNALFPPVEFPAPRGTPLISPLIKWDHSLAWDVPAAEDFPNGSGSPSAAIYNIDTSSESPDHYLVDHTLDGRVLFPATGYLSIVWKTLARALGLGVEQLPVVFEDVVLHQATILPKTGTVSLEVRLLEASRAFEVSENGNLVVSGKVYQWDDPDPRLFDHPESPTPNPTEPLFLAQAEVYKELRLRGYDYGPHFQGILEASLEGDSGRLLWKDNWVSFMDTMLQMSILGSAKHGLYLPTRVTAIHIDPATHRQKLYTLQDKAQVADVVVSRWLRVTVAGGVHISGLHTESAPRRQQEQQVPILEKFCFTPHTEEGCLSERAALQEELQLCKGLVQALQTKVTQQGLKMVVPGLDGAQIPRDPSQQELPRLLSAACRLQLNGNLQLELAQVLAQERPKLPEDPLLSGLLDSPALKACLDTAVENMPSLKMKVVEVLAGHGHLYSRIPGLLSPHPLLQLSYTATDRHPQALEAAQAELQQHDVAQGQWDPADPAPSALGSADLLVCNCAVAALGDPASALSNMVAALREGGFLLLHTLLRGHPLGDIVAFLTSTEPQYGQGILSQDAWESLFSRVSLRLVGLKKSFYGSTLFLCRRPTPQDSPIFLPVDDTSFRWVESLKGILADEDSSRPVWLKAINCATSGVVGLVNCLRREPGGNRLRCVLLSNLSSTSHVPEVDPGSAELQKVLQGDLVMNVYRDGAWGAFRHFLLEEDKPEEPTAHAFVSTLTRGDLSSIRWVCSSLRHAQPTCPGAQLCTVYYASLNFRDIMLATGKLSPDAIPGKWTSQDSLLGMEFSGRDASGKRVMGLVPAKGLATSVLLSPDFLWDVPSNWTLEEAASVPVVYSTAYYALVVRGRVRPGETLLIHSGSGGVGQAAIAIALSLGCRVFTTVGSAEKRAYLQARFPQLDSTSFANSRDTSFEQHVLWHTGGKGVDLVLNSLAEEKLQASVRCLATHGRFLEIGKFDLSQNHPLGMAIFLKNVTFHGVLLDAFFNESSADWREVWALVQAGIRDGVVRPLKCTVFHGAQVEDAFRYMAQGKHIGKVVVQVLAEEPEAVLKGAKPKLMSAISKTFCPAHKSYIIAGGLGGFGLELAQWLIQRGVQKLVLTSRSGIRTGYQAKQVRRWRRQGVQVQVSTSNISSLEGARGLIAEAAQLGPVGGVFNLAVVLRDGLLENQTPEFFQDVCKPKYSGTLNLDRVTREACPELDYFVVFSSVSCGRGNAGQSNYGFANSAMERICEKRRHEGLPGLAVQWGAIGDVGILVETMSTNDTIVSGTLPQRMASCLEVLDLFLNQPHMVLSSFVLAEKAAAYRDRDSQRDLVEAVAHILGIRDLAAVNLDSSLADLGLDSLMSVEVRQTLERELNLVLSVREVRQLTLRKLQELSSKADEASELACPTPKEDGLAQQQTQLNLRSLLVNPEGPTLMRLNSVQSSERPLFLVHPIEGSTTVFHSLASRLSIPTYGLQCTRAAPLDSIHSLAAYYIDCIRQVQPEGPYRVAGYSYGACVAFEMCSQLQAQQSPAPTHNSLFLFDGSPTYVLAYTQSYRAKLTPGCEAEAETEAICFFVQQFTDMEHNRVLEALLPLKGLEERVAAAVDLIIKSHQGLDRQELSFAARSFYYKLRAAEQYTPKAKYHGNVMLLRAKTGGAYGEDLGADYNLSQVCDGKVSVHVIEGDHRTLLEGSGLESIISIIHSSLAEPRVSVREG

Fatty acid synthase [3] = molecular target: T2, Fatty acid synthase; test: inhibition of human FAS-TE enzyme activity – biochemical, kinetic fluorescence intensity, dose response (AID 624326); type: functional;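 further: rate of fluorescence rise from hydrolysis of a fluorogenic O-methyl fluorescein ester substrate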
[4] = molecular target: T1, Short transient receptor potential channel 4; test: calcium entry via TRPC4 opening agents – cell-based, HEK293 TRPC4/mu-opioid, Fluo-4 calcium, dose response (AID 434937); type: functional
[5] = molecular target: Voltage-dependent T-type calcium channel subunit alpha-1H (Homo sapiens, UniProt O95180); type: functional;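 further: channel activity triggered by adding a high calcium stimulation buffer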
Chain of Voltage-dependent T-type calcium channel subunit alpha-1H (O95180 whole entry): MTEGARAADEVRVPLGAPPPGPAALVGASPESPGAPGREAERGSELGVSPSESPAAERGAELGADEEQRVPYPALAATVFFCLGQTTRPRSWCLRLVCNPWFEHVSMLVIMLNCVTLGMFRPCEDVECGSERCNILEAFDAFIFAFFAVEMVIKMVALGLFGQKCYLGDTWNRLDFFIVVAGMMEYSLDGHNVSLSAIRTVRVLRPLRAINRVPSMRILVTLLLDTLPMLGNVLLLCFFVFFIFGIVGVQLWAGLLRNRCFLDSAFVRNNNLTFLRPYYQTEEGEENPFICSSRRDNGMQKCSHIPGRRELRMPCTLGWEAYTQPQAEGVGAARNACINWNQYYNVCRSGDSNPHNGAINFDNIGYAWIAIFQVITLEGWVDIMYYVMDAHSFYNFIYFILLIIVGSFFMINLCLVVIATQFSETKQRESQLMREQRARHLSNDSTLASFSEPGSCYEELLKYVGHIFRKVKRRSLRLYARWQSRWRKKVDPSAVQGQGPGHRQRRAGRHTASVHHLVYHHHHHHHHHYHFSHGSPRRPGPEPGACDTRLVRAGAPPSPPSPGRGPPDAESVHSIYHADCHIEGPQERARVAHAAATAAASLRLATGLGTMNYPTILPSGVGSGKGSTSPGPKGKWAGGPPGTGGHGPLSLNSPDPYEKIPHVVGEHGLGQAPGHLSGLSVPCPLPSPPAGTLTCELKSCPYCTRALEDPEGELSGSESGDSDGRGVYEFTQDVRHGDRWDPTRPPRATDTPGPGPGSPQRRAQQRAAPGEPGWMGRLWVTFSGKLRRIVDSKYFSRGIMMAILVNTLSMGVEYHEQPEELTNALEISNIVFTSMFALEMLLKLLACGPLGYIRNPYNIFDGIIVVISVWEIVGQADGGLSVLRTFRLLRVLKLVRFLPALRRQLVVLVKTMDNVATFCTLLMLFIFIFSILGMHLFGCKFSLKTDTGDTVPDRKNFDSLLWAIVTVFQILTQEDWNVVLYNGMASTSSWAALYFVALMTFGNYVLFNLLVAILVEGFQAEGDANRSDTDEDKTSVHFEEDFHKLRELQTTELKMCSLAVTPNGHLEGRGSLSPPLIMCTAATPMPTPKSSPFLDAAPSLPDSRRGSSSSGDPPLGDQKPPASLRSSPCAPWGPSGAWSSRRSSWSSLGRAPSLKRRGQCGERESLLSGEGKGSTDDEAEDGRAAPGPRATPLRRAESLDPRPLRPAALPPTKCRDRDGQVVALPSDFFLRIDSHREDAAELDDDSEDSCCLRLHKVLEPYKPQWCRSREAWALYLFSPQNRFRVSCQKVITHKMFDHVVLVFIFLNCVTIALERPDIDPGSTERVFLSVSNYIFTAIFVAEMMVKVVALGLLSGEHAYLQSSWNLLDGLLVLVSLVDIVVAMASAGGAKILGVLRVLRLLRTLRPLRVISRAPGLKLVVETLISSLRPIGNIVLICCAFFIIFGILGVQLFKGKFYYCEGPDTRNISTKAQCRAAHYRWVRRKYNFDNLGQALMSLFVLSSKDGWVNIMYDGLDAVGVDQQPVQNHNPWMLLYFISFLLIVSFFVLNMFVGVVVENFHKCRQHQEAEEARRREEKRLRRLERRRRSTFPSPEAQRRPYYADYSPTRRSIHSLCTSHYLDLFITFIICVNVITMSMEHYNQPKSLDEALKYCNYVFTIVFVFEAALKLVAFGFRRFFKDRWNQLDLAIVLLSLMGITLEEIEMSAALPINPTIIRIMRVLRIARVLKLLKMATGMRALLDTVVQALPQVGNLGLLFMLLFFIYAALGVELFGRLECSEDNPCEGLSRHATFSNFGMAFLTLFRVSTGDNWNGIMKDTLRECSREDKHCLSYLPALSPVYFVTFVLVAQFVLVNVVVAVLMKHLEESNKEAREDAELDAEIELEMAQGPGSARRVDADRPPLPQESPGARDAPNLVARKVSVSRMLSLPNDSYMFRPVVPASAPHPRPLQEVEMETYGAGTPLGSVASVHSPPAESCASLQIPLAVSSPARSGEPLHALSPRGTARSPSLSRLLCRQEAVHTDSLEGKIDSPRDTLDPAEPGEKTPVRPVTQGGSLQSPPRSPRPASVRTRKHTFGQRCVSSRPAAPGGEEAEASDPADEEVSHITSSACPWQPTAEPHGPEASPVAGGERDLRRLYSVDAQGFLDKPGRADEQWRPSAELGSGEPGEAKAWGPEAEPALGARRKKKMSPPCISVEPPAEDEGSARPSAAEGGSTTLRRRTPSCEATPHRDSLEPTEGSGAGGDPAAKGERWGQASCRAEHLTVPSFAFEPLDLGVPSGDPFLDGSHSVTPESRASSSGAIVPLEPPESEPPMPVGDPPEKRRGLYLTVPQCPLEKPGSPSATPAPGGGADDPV

Aminopeptidase N = molecular target: T3, Aminopeptidase N (Plasmodium falciparum FcB1/Columbia, UniProt O96935); test: malaria alanyl aminopeptidase activity blockers – biochemical, fluorogenic H-Leu-NHMec substrate, 1536-well (AID 1445); parameters: species or system Plasmodium falciparum 3D7, 3D7
T3 sequence (O96935 whole entry): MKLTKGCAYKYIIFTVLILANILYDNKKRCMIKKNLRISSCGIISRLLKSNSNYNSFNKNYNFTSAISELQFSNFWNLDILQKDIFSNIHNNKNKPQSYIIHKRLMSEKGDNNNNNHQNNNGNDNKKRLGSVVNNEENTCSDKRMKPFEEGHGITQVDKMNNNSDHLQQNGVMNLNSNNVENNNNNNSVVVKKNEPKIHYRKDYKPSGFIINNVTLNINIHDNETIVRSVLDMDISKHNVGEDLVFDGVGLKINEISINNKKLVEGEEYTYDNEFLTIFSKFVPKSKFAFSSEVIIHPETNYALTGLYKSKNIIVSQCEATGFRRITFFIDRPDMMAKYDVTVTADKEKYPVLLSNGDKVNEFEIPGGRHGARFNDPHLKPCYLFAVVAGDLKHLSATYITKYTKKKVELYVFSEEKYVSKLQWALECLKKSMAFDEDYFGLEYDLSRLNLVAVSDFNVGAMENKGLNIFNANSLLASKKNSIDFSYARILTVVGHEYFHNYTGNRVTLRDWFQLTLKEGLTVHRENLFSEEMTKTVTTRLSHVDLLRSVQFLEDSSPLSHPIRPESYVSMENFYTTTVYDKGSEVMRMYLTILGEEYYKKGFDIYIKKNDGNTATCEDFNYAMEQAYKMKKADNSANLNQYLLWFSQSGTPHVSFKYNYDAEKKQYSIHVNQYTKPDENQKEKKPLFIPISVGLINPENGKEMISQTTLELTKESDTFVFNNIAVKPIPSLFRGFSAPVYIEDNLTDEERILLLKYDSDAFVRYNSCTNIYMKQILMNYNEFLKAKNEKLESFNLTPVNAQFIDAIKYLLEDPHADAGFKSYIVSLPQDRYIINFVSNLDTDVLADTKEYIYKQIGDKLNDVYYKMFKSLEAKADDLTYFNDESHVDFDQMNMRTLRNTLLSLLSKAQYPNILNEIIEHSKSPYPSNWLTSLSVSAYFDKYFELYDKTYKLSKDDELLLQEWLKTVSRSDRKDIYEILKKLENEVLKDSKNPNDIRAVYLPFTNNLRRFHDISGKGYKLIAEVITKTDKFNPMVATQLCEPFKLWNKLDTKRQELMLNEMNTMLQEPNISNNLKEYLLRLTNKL

[6] = molecular target: FAD-linked sulfhydryl oxidase ALR (Homo sapiens, UniProt P55789); test: ALR-catalysed DTT oxidation blockers – biochemical, H2O2 detection, luminescence, cherry-pick, dose response (AID 493248)
Chain of FAD-linked sulfhydryl oxidase ALR (P55789 whole entry): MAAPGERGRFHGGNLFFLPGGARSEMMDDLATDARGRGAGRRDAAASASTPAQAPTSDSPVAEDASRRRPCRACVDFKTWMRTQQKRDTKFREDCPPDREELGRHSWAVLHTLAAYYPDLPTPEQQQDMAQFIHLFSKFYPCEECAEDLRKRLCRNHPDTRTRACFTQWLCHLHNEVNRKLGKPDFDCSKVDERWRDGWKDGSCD

[7] = Luminescence Cell-Based Dose Retest to Confirm Inhibitors of Cancer Stem Cells. [Related pubchem assays (depositor defined):AID2717, AID2721]; type: functional, Homo sapiens; conditions: Homo sapiens
[8] = molecular target: Heat shock protein HSP 90-alpha (Homo sapiens, UniProt P07900); type: functional, organism-based
[9] = Trypanosoma cruzi growth suppression in host cells – NIH3T3 host cells, beta-gal luminescence, confirmation (AID 2044); type: functional, cell-based;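 further: intracellular parasites grown in NIH/3T3 mouse fibroblasts as host cells; luminescent beta-galactosidase reporter signal from transgenic T. cruzi replicating inside host cells; inhibitors lower the luminescence signal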
[10] = NIH3T3 cell viability loss – ATP luminescence, mouse fibroblasts, counter-screen, dose response (AID 2010); type: functional, cell-based;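 further: cells exposed to compound for about 90 hours before reading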
[11] = molecular target: T4, Heat shock factor protein 1 (Mus musculus, UniProt P38532); test: enhancement of HSF1-driven luciferase signal – cell-based, NIH3T3, luminescence, dose retest, confirmation (AID 435004); type: functional;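 further: stress induced by proteasome inhibitor MG132 added 30 min after compound; luciferase reporter driven by HSF1 response element in NIH3T3 cells; actives raise luminescence as potentiators of the MG132 stress response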
T4 sequence (P38532 whole entry): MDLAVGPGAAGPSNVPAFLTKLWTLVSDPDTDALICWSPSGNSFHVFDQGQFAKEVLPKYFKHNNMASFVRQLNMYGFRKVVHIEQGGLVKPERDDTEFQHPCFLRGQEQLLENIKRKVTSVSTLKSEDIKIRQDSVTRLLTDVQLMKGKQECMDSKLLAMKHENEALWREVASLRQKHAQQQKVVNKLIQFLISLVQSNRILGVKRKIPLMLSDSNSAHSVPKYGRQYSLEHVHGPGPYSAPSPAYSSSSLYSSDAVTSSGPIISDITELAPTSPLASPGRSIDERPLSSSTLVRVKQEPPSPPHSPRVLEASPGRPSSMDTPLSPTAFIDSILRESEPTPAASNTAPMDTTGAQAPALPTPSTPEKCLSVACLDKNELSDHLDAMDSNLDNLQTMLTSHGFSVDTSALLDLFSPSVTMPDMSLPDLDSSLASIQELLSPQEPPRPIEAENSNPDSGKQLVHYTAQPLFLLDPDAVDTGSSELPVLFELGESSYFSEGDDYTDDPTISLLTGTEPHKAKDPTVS

IC50 (Genome polyprotein): 39.6 µM (active)
IC50 (Fatty acid synthase [2]): 10.9 µM (active)
IC50 (Fatty acid synthase [3]): 11.3 µM (active)
Compound: Cc1ccc(S(=O)(=O)N2[C@@H](c3ccc(C(C)(C)C)cc3)C(C(=O)O)=CC[C@H]2c2ccc(Cl)cc2)cc1
CC50 (Vero): > 40 µM (active)

EC50 [5]: 9.65 µM (active)
Compound: O=S(=O)(Nc1nc2ccccc2nc1Nc1ccc2c(c1)OCCO2)c1cccs1

EC50 [1]: 1.5 µM (active)
EC50 [4]: 1.88 µM (active)
Compound: OC1(c2ccccc2)C[N+](c2ccccc2)=C2SCCN21 (stereo unspecified)

IC50 (Aminopeptidase N): 94 µM (active)
Compound: Cc1ccc(S(=O)(=O)NC2=NC(=O)/C(=C\c3ccco3)S2)cc1

EC50 [5]: 2 µM (active)
Compound: Cc1ccc(-c2nc(C[S+]([O-])CC(=O)NCc3ccc(Cl)cc3)c(C)o2)cc1 (stereo unspecified)

IC50 (Aminopeptidase N): 104 µM (active)
AC50 [6]: 0.236 µM (active)
Compound: O=C(O)c1ccc(S(=O)(=O)Nc2ccc(O)c(Sc3nc4ccccc4s3)c2)cc1

IC50 (Aminopeptidase N): 94.5 µM (active)
Compound: Cc1ccc(C)c(CS(=O)(=O)c2cn(CC(=O)N3CCCCC3)c3ccccc23)c1

EC50 [5]: 4.3 µM (active)
Compound: Cc1nc(CS(=O)(=O)c2ccc(Cl)cc2)cc(Sc2ccccc2Cl)n1

More lines, now with the values behind:

Compound: CCCc1nc2oc3c(NCCN(C)C)ncnc3c2c2c1CCCC2
EC50 [1]: 1.68 µM (active)

Compound: CCOC(=O)C1(CC2CC2)CCN(Cc2ccc(O)c(Cl)c2)CC1
EC50 [1]: 0.376 µM (active)
EC50 [4]: 0.841 µM (active)

Compound: CCCCNC(=Nc1ccc(Cl)cc1)c1cccnc1
EC50 [1]: 7.5 µM (active)

Compound: CCCCc1cc(=O)oc2c(CN(CC)CC)c(O)c(Cl)cc12
IC50 (Aminopeptidase N): 41.5 µM (active)

Compound: COc1ccc(C(C)(C)C)cc1NC(=O)Nc1ccc2c(c1)OCO2
AC50 [7]: 6.11 µM (active)
AC50 [8]: 7.91 µM (active)

Compound: Cc1nn(Cc2ccc(Cl)cc2Cl)c(C)c1NC(=O)c1ccc(COc2cc(Cl)ccc2Cl)o1
EC50 [9]: 1.5 µM (active)
EC50 [10]: > 60 µM (not active)
EC50 [5]: 17.5 µM (active)

Compound: O=C(Nc1ccn(Cc2ccccc2F)n1)c1ccc(COc2ccc(Cl)cc2Cl)o1
EC50 [5]: 10.3 µM (active)
AC50 [7]: 2.03 µM (active)
EC50 [11]: 20.8 µM (active)

— ChEMBL document CHEMBL1201862, “PubChem BioAssay data set” (2004)
